The results in this text go back to patent US12576099B2, “Ribose-modified cap analog and use thereof” (Beijing Youcare Kechuang Pharmaceutical Technology Co., Ltd., priority 2024, dated 2026).

The nature of data set [1]: Characterization of lipid nanoparticles encapsulating Fluc-mRNA prepared from different cap structures. Format: physicochemical. An outline of the steps:
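LNPs of YK-009/DSPC/cholesterol/DMG-PEG2000 (49:10:39.5:1.5) made by microfluidic mixing with Fluc-mRNA in 50 mM citrate pH 4, lipid:mRNA ~15:1 w/w, then ultrafiltered into PBS and 0.2 μm filtered. Size and PDI by DLS (90°, 25 °C, triplicate); encapsulation efficiency by RiboGreen assay.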

A further data set deals with HEK293T cells. Description: Translation efficiency of different capped luciferase mRNAs. The data set is classed as cell-based. An outline of the steps: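 HEK293T cells were transfected with 0.5 μg capped luciferase mRNA per well (Lipofectamine MessengerMAX) and cultured 24 h at 37 °C. Lysates were mixed with Dual-Lumi II reagent for 5 min at about 25 °C; luminescence served as the measure of translation efficiency.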

With `COC(C)[C@H]1[C@@H](O)[C@H]([n+]2cn(C)c3c(=O)[nH]c(N)nc32)O[C@@H]1COP(=O)(O)OP(=O)(O)OP(=O)(O)OC[C@H]1O[C@@H](n2cnc3c(N)ncnc32)[C@H](OC)[C@@H]1OP(=O)(O)OC[C@H]1O[C@@H](n2cnc3c(=O)[nH]c(N)nc32)[C@H](O)[C@@H]1O` (some centres unmarked) [YK-CAP-107], the Particle size in data set [1] (LNP (YK-009/DSPC/cholesterol/DMG-PEG2000) with Fluc-mRNA transcribed using the named cap analog) stood at 78.42 nm. This compound came in with a PDI in data set [1] (LNP with Fluc-mRNA transcribed using the named cap analog) of 0.053. Also, in data set [1] (encapsulation efficiency of LNP with Fluc-mRNA transcribed using the named cap analog), the EE came to 96.3%. In the data set on HEK293T cells (HEK293T, 0.5 μg mRNA per well, 24 hours, proportional to translation efficiency), this compound yielded a Relative fluorescence intensity of 1.62. Moreover, the “Multiple of m6A (relative fluorescence intensity)” value with HEK293T cells (relative to m6A) worked out at 4.3.
